# Literature values in patent publication US20070254015A1, “Sanitizing surfaces” (Searete LLC, a limited liability corporation of the State …, priority 2006, published 2007).
# Where two headings read alike, the source gives them in different places.
# Tests used:
# [1] = system: Human Immunodeficiency Virus (HIV-1)
# [2] = system: Hepatitis B Virus
# [3] = Table I, liquid sanitizing agents
# [4] = Table II, liquid sanitizing agents for gloves
Molecule,"Known Minimum Concentration by Volume for Immediately Sterilizing Human Immunodeficiency Virus (HIV-1) [1, 3] [%]","Known Minimum Concentration by Volume for Immediately Sterilizing Human Immunodeficiency Virus (HIV-1) [1, 4] [%]","Known Minimum Concentration by Volume for Immediately Sterilizing Hepatitis B Virus [2, 3] [%]","Known Minimum Concentration by Volume for Immediately Sterilizing Hepatitis B Virus [2, 4] [%]"
CCO [Ethyl Alcohol],50,50,80,80
OO [Hydrogen Peroxide],0.3,0.3,–,–
CC(C)O [Isopropyl Alcohol],30,30,70,70
ethylphenyl-polyethylene glycol [NP-40],1,1,–,–
